Experimental data published in ChEMBL document CHEMBL1201862, “PubChem BioAssay data set” (2004).
Active and inactive are the calls of the source.

Experiments:
[1] = biological target: T1, Tyrosine-protein phosphatase non-receptor type 7 (Homo sapiens, UniProt P35236); assay type: functional
T1 sequence (P35236 whole entry): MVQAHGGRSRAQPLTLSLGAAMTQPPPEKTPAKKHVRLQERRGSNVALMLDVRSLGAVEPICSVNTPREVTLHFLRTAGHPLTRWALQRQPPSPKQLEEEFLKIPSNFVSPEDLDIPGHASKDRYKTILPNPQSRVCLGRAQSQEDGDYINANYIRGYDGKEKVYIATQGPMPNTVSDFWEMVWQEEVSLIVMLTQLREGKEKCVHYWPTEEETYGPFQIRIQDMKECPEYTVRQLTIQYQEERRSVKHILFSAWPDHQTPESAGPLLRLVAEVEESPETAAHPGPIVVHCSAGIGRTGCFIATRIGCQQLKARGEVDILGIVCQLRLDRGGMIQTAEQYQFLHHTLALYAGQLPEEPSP

[2] = biological target: Glyceraldehyde-3-phosphate dehydrogenase (Homo sapiens, UniProt P04406)
[3] = biological target: Heat shock cognate 71 kDa protein (Homo sapiens, UniProt P11142); experiment: In Vitro Hsc70 Dose Response Fluorescence Polarization Assay. [Related pubchem assays: 1072 ]
[4] = biological target: Heat shock 70 kDa protein 1A (Homo sapiens, UniProt P0DMV8); experiment: Hsp70 inhibitors, SAR follow-up, biochemical, fluorescence polarization (AID 1072)
[5] = biological target: T2, Dual specificity protein phosphatase 6 (Rattus norvegicus, UniProt Q64346)
T2 sequence (Q64346 whole entry): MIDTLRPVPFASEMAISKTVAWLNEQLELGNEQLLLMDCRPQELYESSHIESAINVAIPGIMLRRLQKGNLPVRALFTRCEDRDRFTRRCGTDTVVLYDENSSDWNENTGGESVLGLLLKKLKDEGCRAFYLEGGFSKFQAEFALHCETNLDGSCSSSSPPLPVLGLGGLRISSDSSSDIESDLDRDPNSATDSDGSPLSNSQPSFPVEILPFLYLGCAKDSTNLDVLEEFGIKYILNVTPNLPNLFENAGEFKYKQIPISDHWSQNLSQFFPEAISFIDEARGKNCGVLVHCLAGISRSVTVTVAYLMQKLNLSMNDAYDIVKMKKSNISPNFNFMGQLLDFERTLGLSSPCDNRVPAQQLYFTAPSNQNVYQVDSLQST

[6] = biological target: T2, Dual specificity protein phosphatase 6; assay type: functional
[7] = biological target: T3, Heat shock factor protein 1 (Mus musculus, UniProt P38532); experiment: inhibition of MG132-induced HSE-luciferase signal, confirmation, cell-based, NIH3T3, luminescence, dose retest (AID 2382); assay type: functional;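 also: NIH3T3 fibroblasts with HSF1-driven luciferase reporter stressed by proteasome inhibitor MG132; luminescence from HSF1-driven luciferase expression after 8 hours of MG132 stress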
T3 sequence (P38532 whole entry): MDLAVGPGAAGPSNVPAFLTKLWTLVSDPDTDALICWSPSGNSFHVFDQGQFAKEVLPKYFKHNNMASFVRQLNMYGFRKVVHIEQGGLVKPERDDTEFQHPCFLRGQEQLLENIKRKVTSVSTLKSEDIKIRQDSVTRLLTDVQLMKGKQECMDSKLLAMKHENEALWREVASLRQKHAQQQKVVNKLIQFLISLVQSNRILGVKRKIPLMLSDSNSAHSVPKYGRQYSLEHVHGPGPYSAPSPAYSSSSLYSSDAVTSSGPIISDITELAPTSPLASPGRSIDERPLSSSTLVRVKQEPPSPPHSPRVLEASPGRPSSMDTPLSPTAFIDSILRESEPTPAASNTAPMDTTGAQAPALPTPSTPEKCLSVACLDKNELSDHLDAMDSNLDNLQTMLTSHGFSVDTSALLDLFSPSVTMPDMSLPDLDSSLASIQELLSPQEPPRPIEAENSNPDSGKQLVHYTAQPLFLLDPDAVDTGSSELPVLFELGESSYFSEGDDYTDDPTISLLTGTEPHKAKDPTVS

[8] = Luminescence-based counterscreen assay for KLF5 inhibitors: dose response cell-based high throughput screening assay to identify cytotoxic compounds using the IEC-6 intestinal epithelial cell line. [Related pubchem assays: 1700 (Primary screen.), 1834 (Confirmation screen.), 1858 (Summary AID.), 1905 (Counterscreen.)]; assay type: functional
[9] = cytotoxicity in HEK-293T cells, dose response, cytotoxicity control for TCR NF-kB inhibitor project, luminescence, T-cell screen hits (AID 489026); assay type: functional, cell-based;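 also: cells exposed to compound about 14 hours before the viability readout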
[10] = Shn3 3'UTR reporter inhibitors, dose response, cell-based, Clone20 osteoblasts, firefly luciferase, cherry-picked (AID 624132); assay type: functional;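 also: firefly luciferase luminescence from reporter carrying the Shn3 3'UTR in osteoblasts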
Paired box protein Pax-8 = Paired box protein Pax-8 (Homo sapiens, UniProt Q06710); experiment: inhibitors of PAX8-driven TPO luciferase reporter, dose response, RMG-I cells, cherry-pick (AID 687027); assay type: functional, cell-based;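 also: luciferase reporter driven by Pax8 target thyroperoxidase promoter measured by SteadyGlo luminescence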
[11] = reduction of Shn3 3'UTR firefly luciferase signal, dose response, Schnurri-3 inhibitor project, cell-based, Clone20 osteoblasts, cherry-pick, set 2 (AID 720490); assay type: functional;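 also: actives lower the luminescence signal as inhibitors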
[12] = A549 cell cytotoxicity, dose response, cytotoxicity control, plate reader, cherry-pick, antagonist series (AID 743412); assay type: functional, cell-based
[13] = HepG2 cell cytotoxicity, dose response, cytotoxicity control, plate reader, cherry-pick, antagonist series (AID 743416); assay type: functional, cell-based
[14] = LGR2 antagonists, dose response, cell-based, HEK293, CRE-luciferase reporter, cherry pick, set 2 (AID 743343); assay type: functional;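 also: transfected cells were stimulated with diluted bursicon conditioned medium after compound addition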
[15] = MC4R antagonists, dose response, counter-screen for LGR2 antagonist project, cell-based, plate reader, cherry pick (AID 743444); assay type: functional;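 also: transfected HEK 293 cells stimulated with alpha-MSH peptide; potency of inhibitors of the alpha-MSH evoked signal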
HEK293 [16] = experiment: NOD1 signaling inhibitors, primary screen, cell-based, luminescence, uHTS (AID 1578); assay type: functional; conditions: Homo sapiens
HEK293 [17] = experiment: cells; assay type: functional, cell-based; conditions: Homo sapiens
HEK293 [18] = experiment: cells; assay type: functional, cell-based; conditions: Homo sapiens; remark: listed apart in the source
[19] = biological target: Nucleotide-binding oligomerization domain-containing protein 2 (Homo sapiens, UniProt Q9HC29); experiment: NOD2 signaling inhibitors, cell-based, luminescence, uHTS, HEK293 (AID 1566); assay type: functional
HEK293 [20] = experiment: NOD2 signaling inhibitors in MDP-stimulated cells, cell-based, uHTS, luminescence (AID 2001); assay type: functional; conditions: Homo sapiens
HEK293 [21] = experiment: cells; assay type: functional, cell-based; conditions: Homo sapiens; remark: listed apart in the source

Sequence of Paired box protein Pax-8 (Q06710 whole entry): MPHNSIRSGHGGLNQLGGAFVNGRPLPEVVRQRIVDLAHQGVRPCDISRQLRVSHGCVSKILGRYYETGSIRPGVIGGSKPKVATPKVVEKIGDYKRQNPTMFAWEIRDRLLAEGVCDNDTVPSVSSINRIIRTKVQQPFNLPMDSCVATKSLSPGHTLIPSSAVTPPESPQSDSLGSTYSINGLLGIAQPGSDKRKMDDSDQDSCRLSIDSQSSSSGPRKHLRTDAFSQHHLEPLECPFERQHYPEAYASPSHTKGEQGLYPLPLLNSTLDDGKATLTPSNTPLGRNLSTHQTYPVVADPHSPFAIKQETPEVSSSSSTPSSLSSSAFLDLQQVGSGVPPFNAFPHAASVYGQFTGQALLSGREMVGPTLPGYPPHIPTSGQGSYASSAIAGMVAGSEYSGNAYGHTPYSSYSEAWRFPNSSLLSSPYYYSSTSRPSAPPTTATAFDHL
Sequence of Nucleotide-binding oligomerization domain-containing protein 2 (Q9HC29 whole entry, the tested form may be a part): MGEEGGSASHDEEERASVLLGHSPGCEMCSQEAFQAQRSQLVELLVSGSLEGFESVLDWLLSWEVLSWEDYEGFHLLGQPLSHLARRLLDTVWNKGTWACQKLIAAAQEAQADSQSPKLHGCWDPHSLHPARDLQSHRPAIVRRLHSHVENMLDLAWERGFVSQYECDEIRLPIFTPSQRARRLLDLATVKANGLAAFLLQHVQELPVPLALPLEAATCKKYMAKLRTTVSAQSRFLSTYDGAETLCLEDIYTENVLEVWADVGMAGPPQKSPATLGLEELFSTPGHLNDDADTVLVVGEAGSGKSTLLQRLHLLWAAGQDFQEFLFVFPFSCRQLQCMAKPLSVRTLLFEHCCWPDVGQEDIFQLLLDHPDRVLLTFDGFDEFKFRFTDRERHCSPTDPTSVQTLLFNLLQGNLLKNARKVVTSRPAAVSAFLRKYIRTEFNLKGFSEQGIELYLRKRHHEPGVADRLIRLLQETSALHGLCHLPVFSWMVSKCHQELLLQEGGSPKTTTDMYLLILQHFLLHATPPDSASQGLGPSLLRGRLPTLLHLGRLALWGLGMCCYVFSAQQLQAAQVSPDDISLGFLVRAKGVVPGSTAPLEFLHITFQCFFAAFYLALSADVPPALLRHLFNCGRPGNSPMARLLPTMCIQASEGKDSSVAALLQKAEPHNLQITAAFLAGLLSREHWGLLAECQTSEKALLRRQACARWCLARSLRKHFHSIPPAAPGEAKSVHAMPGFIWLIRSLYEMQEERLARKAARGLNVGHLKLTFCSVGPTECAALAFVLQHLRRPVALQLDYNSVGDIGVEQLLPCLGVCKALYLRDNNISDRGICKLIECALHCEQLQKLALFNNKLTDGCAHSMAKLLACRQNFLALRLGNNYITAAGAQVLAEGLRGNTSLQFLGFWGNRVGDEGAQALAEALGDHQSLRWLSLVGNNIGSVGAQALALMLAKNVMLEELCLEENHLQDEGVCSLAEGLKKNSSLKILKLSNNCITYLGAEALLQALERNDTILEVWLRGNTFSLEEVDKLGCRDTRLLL
Sequence of Heat shock 70 kDa protein 1A (P0DMV8 whole entry): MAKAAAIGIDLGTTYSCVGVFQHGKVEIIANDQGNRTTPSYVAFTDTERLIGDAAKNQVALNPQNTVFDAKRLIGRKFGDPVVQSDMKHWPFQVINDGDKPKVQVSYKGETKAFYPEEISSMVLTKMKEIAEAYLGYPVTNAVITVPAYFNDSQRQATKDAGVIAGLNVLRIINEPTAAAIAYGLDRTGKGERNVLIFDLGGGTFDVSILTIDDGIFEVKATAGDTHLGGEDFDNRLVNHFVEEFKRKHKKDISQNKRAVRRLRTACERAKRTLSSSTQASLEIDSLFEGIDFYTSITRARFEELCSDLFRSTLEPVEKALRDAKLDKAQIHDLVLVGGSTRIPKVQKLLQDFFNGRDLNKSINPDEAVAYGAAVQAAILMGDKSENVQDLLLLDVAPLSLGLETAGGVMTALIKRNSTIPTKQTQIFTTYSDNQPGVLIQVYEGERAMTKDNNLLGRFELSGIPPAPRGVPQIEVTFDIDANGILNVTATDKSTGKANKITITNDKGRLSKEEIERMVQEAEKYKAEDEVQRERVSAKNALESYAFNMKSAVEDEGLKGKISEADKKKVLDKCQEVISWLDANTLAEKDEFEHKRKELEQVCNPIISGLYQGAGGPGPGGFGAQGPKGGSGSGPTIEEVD
Sequence of Glyceraldehyde-3-phosphate dehydrogenase (P04406 whole entry): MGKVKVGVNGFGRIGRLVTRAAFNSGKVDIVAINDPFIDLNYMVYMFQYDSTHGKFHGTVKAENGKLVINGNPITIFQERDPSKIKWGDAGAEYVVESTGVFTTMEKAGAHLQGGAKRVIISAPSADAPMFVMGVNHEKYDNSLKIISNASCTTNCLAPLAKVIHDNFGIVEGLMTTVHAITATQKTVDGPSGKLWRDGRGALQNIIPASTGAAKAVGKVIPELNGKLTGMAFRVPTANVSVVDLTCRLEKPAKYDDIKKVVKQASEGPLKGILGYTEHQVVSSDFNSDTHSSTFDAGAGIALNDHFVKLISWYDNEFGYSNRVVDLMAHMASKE
Sequence of Heat shock cognate 71 kDa protein (P11142 whole entry): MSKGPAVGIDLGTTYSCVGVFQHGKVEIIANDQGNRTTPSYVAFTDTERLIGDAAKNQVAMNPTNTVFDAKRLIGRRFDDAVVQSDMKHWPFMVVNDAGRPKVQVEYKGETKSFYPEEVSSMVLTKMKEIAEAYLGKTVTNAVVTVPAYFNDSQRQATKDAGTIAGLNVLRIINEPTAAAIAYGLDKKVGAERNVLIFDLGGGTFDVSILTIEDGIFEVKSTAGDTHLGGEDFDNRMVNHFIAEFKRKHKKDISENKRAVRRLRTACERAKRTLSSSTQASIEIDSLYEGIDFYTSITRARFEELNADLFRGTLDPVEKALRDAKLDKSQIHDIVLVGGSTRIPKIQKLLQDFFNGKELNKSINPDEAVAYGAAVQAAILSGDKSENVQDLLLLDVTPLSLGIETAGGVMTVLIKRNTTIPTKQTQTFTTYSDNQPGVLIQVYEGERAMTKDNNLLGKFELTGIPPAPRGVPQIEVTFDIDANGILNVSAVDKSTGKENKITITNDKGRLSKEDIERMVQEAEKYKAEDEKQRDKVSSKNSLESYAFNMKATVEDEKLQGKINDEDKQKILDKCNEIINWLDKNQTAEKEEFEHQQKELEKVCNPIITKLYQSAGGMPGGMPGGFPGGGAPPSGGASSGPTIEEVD

**Q.** With `O=C(Oc1ccc2c(c1)C1C=CCC1C(C(=O)O)N2)c1ccc(Cl)cc1Cl` (centres undefined) as the compound, how does the IC50 [1] read?
**A.** Its IC50 is 2.38 µM (active).

**Q.** What about the IC50 [2] of the same compound?
**A.** Its IC50 is > 100 µM (not active).

**Q.** What about the IC50 [3] of the same compound?
**A.** Its IC50 is > 100 µM (not active).

**Q.** And the IC50 [4]?
**A.** Its IC50 is > 100 µM (not active).

**Q.** What about the IC50 [5] of the same compound?
**A.** The IC50 was 17 µM (active).

**Q.** What about the IC50 [6] of the same compound?
**A.** The IC50 was 15.6 µM (active).

**Q.** Which IC50 (cells) does the source give for `CCN(c1ccccc1)S(=O)(=O)c1ccc(Cl)c(NC(=O)c2ccc(O)nn2)c1` here?
**A.** The IC50 was 32.8 µM (active).

**Q.** With `CC1=C2C(=O)C3C(CC=C4CC(O)CCC43C)C2CCC12OC1CC(C)CNC1C2C` (centres undefined) as the compound, how does the IC50 (cells) read?
**A.** Its IC50 is 4.18 µM (active).

**Q.** For `CC(C)(C)C(=O)Nc1ccc(NC(=O)c2ccco2)nc1`, which EC50 [7] is on record?
**A.** The EC50 was < 0.16 µM (active).

**Q.** And the IC50 [8]?
**A.** Its IC50 is > 39.8 µM (not active).

**Q.** What about the IC50 [9] of the same compound?
**A.** The IC50 was > 80 µM (inactive).

**Q.** And the AC50 [10]?
**A.** The AC50 was 1.17 µM (active).

**Q.** What about the AC50 (Paired box protein Pax-8) of the same compound?
**A.** Its AC50 is 1.26 µM (active).

**Q.** What about the AC50 [11] of the same compound?
**A.** The AC50 was 2.64 µM (active).

**Q.** And the AC50 [12]?
**A.** The AC50 was > 52 µM (inactive).

**Q.** And the AC50 [13]?
**A.** Its AC50 is > 52 µM (inactive).

**Q.** And the AC50 [14]?
**A.** Its AC50 is 0.243 µM (active).

**Q.** What about the AC50 [15] of the same compound?
**A.** Its AC50 is 0.245 µM (active).

**Q.** For `Cn1c(Sc2ccc(Cl)cc2)c(C=O)c2ccccc21`, which EC50 (HEK293 [16]) is on record?
**A.** The EC50 was 1.63 µM (active).

**Q.** And the IC50 (HEK293 [17])?
**A.** Its IC50 is 0.748 µM (active).

**Q.** What about the IC50 (HEK293 [18]) of the same compound?
**A.** Its IC50 is > 20 µM (inactive).

**Q.** And the EC50 [19]?
**A.** Its EC50 is 2.17 µM (active).

**Q.** What about the IC50 (HEK293 [20]) of the same compound?
**A.** The IC50 was 1.15 µM (active).

**Q.** And the IC50 (HEK293 [21])?
**A.** Its IC50 is > 20 µM (inactive).
